Results: US10638756B2, “Molecules having pesticidal utility, and intermediates, compositions, and processes, related thereto” (Dow AgroSciences LLC, priority 2017, dated 2020)

Legend:
[1] = test system: Beet Armyworm (Spodoptera exigua); experiment: Bioassay on Beet Armyworm (BAW), 128-well diet tray assay; format: in vivo; conditions: Spodoptera exigua, 168 h; 50 μg/cm^2 on artificial diet, second instar larvae, five to seven days; read-out: BAW % Control (or Mortality) rating
Procedure: (§1) Certain molecules disclosed in this document were tested against BAW and CL using procedures described in the following examples. In the reporting of the results, the “BAW & CL Rating Table” was used (See Table Section).
Bioassays on BAW were conducted using a 128-well diet tray assay. […] Trays were covered with a clear self-adhesive cover, vented to allow gas exchange, and held at 25° C., 14:10 light-dark for five to seven days. Percent mortality was recorded for the larvae in each well; activity in the eight wells was then averaged. The results are indicated in the table entitled “Table ABC: Biological Results” (See Table Section).

[2] = test system: Cabbage Looper (Trichoplusia ni); experiment: Bioassay on Cabbage Looper (CL), 128-well diet tray assay; format: in vivo; conditions: 168 h, 50 μg/cm^2 on artificial diet, second instar larvae, five to seven days, read-out: CL % Control (or Mortality) rating
Procedure: as §1
Bioassays on CL were conducted using a 128-well diet tray assay. One to five second instar CL larvae were placed in each well (3 mL) of the diet tray that had been previously filled with 1 mL of artificial diet to which 50 μg/cm^2 of the test molecule (dissolved in 50 μL of 90:10 acetone-water mixture) had been applied (to each of eight wells) and then allowed to dry. Trays were covered with a clear self-adhesive cover, vented to allow gas exchange, and held at 25° C., 14:10 light-dark for five to seven days. Percent mortality was recorded for the larvae in each well; activity in the eight wells was then averaged. The results are indicated in the table entitled “Table ABC: Biological Results” (See Table Section).

SMILES	mortality at 50 µg/cm2 [1] [%]	mortality at 50 µg/cm2 [2] [%]
CC(C)CCN(C)NC(=O)c1ccc(/C(F)=C/C(c2cc(Cl)c(Cl)c(Cl)c2)C(F)(F)F)cc1C(F)(F)F (stereo not drawn) [F160, (Z)—N′-Isopentyl-N′-methyl-4-(1,4,4,4-tetrafluoro-3-(3,4,5-trichlorophenyl)but-1-en-1-yl)-2-(trifluoromethyl)benzohydrazide]	50 to 100	50 to 100
C=C(OCC)c1c(Cl)cc(C(/C=C(\F)c2ccc(C(=O)NNc3ncccn3)c(C(F)(F)F)c2)C(F)(F)F)cc1Cl (stereo not drawn) [F190, (Z)-4-(3-(3,5-Dichloro-4-(1-ethoxyvinyl)phenyl)-1,4,4,4-tetrafluorobut-1-en-1-yl)-N′-(pyrimidin-2-yl)-2-(trifluoromethyl)benzohydrazide]	50 to 100	50 to 100
O=C(NNCC1CC1)c1ccc(/C(F)=C/C(c2cc(Cl)c(Cl)c(Cl)c2)C(F)(F)F)cc1C(F)(F)F (stereo not drawn) [F162, (Z)—N′-(Cyclopropylmethyl)-4-(1,4,4,4-tetrafluoro-3-(3,4,5-trichlorophenyl)but-1-en-1-yl)-2-(trifluoromethyl)benzohydrazide]	50 to 100	50 to 100
O=C(NNc1ncccn1)c1ccc(/C(F)=C/C(c2cc(Cl)c(Cl)c(C(F)F)c2)C(F)(F)F)cc1C(F)(F)F (stereo not drawn) [F186, (Z)-4-(3-(3,4-Dichloro-5-(difluoromethyl)phenyl)-1,4,4,4-tetrafluorobut-1-en-1-yl)-N′-(pyrimidin-2-yl)-2-(trifluoromethyl)benzohydrazide]	50 to 100	50 to 100
O=C(NNc1c(Cl)c(Cl)nc(Cl)c1Cl)c1ccc(/C(F)=C/C(c2cc(Cl)c(Cl)c(Cl)c2)C(F)(F)F)cc1C(F)(F)F (stereo not drawn) [F131, (Z)—N′-(Perchloropyridin-4-yl)-4-(1,4,4,4-tetrafluoro-3-(3,4,5-trichlorophenyl)but-1-en-1-yl)-2-(trifluoromethyl)benzohydrazide]	0	0
Cc1cc(/C(F)=C/C(c2cc(Cl)c(Cl)c(Cl)c2)C(F)(F)F)ccc1C(=O)NN(C)c1ncccn1 (stereo not drawn) [F55, (Z)—N′,2-Dimethyl-N′-(pyrimidin-2-yl)-4-(1,4,4,4-tetrafluoro-3-(3,4,5-trichlorophenyl)but-1-en-1-yl)benzohydrazide]	50 to 100	50 to 100
CN(NC(=O)c1ccc(/C(F)=C/C(c2cc(F)c(F)c(Cl)c2)C(F)(F)F)cc1C(F)(F)F)c1ncccn1 (stereo not drawn) [F175, (Z)-4-(3-(3-Chloro-4,5-difluorophenyl)-1,4,4,4-tetrafluorobut-1-en-1-yl)-N′-methyl-N′-(pyrimidin-2-yl)-2-(trifluoromethyl)benzohydrazide]	50 to 100	50 to 100
CCc1cnc(NNC(=O)c2ccc(/C(F)=C/C(c3cc(Cl)c(Cl)c(Cl)c3)C(F)(F)F)cc2C(F)(F)F)nc1 (stereo not drawn) [F84, (Z)—N′-(5-Ethylpyrimidin-2-yl)-4-(1,4,4,4-tetrafluoro-3-(3,4,5-trichlorophenyl)but-1-en-1-yl)-2-(trifluoromethyl)benzohydrazide]	50 to 100	50 to 100
Cc1cc(C)c(NNC(=O)c2ccc(/C(F)=C/C(c3cc(Cl)c(Cl)c(Cl)c3)C(F)(F)F)cc2C(F)(F)F)c(C)c1 (stereo not drawn) [F73, (Z)—N′-Mesityl-4-(1,4,4,4-tetrafluoro-3-(3,4,5-trichlorophenyl)but-1-en-1-yl)-2-(trifluoromethyl)benzohydrazide]	50 to 100	0 to 50
O=C(NNc1ncc(F)cn1)c1ccc(/C(F)=C/C(c2cc(Cl)c(Cl)c(Cl)c2)C(F)(F)F)cc1C(F)(F)F (stereo not drawn) [F114, (Z)—N′-(5-Fluoropyrimidin-2-yl)-4-(1,4,4,4-tetrafluoro-3-(3,4,5-trichlorophenyl)but-1-en-1-yl)-2-(trifluoromethyl)benzohydrazide]	50 to 100	50 to 100
Cc1nc(C)c(C)c(NNC(=O)c2ccc(/C(F)=C/C(c3cc(Cl)c(Cl)c(Cl)c3)C(F)(F)F)cc2C(F)(F)F)n1 (stereo not drawn) [F75, (Z)-4-(1,4,4,4-Tetrafluoro-3-(3,4,5-trichlorophenyl)but-1-en-1-yl)-2-(trifluoromethyl)-N′-(2,5,6-trimethylpyrimidin-4-yl)benzohydrazide]	50 to 100	50 to 100
CN(NC(=O)c1ccc(/C(F)=C/C(c2cc(Cl)c(Cl)c(Cl)c2)C(F)(F)F)cc1C(F)(F)F)c1nccc(C(F)(F)F)n1 (stereo not drawn) [F91, (Z)—N′-methyl-4-(1,4,4,4-tetrafluoro-3-(3,4,5-trichlorophenyl)but-1-en-1-yl)-2-(trifluoromethyl)-N′-(4-(trifluoromethyl)pyrimidin-2-yl)benzohydrazide]	50 to 100	50 to 100
CC(C)(C)CNNC(=O)c1ccc(/C(F)=C/C(c2cc(Cl)c(Cl)c(Cl)c2)C(F)(F)F)cc1C(F)(F)F (stereo not drawn) [F140, (Z)—N′-Neopentyl-4-(1,4,4,4-tetrafluoro-3-(3,4,5-trichlorophenyl)but-1-en-1-yl)-2-(trifluoromethyl)benzohydrazide]	50 to 100	50 to 100
O=C(NNc1ncc(C(F)(F)F)cn1)c1ccc(/C(F)=C/C(c2cc(Cl)c(Cl)c(Cl)c2)C(F)(F)F)cc1C(F)(F)F (stereo not drawn) [F101, (Z)-4-(1,4,4,4-Tetrafluoro-3-(3,4,5-trichlorophenyl)but-1-en-1-yl)-2-(trifluoromethyl)-N′-(5-(trifluoromethyl)pyrimidin-2-yl)benzohydrazide]	50 to 100	50 to 100
CN(NC(=O)c1ccc(/C(F)=C/C(c2cc(Cl)cc(OC(F)(F)F)c2)C(F)(F)F)cc1C(F)(F)F)c1ccccn1 (stereo not drawn) [F61, (Z)-4-(3-(3-Chloro-5-(trifluoromethoxy)phenyl)-1,4,4,4-tetrafluorobut-1-en-1-yl)-N′-methyl-N′-(pyridin-2-yl)-2-(trifluoromethyl)benzohydrazide]	50 to 100	50 to 100
CN(NC(=O)c1ccc(/C(F)=C/[C@@H](c2cc(Cl)c(Cl)c(Cl)c2)C(F)(F)F)cc1C(F)(F)F)c1ncccn1 (single isomer, unassigned) [F17]	50 to 100	50 to 100
CC(C)N(NC(=O)c1ccc(/C(F)=C/C(c2cc(Cl)c(Cl)c(Cl)c2)C(F)(F)F)cc1C(F)(F)F)c1ncccn1 (stereo not drawn) [F169, (Z)—N′-Isopropyl-N′-(pyrimidin-2-yl)-4-(1,4,4,4-tetrafluoro-3-(3,4,5-trichlorophenyl)but-1-en-1-yl)-2-(trifluoromethyl)benzohydrazide]	50 to 100	50 to 100
N#CCCNNC(=O)c1ccc(/C(F)=C/C(c2cc(Cl)c(Cl)c(Cl)c2)C(F)(F)F)cc1C(F)(F)F (stereo not drawn) [F142, (Z)—N′-(2-Cyanoethyl)-4-(1,4,4,4-tetrafluoro-3-(3,4,5-trichlorophenyl)but-1-en-1-yl)-2-(trifluoromethyl)benzohydrazide]	50 to 100	50 to 100
O=C(NNc1cccc(C(F)(F)F)n1)c1ccc(/C(F)=C/C(c2cc(Cl)c(Cl)c(Cl)c2)C(F)(F)F)cc1C(F)(F)F (stereo not drawn) [F141, (Z)-4-(1,4,4,4-Tetrafluoro-3-(3,4,5-trichlorophenyl)but-1-en-1-yl)-2-(trifluoromethyl)-N′-(6-(trifluoromethyl)pyridin-2-yl)benzohydrazide]	50 to 100	50 to 100
CN(NC(=O)c1ccc(/C(F)=C/C(c2cc(Br)c(F)c(Br)c2)C(F)(F)F)cc1C(F)(F)F)c1ccccc1 (stereo not drawn) [F123, (Z)-4-(3-(3,5-Dibromo-4-fluorophenyl)-1,4,4,4-tetrafluorobut-1-en-1-yl)-N′-methyl-N′-phenyl-2-(trifluoromethyl)benzohydrazide]	50 to 100	50 to 100
O=C(NNc1ncccn1)c1ccc(/C(F)=C/C(c2cc(Cl)c(Cl)c(Br)c2)C(F)(F)F)cc1C(F)(F)F (stereo not drawn) [F96, (Z)-4-(3-(3-Bromo-4,5-dichlorophenyl)-1,4,4,4-tetrafluorobut-1-en-1-yl)-N′-(pyrimidin-2-yl)-2-(trifluoromethyl)benzohydrazide]	50 to 100	50 to 100
O=C(NNCCCC(F)(F)F)c1ccc(/C(F)=C/C(c2cc(Cl)c(Cl)c(Cl)c2)C(F)(F)F)cc1C(F)(F)F (stereo not drawn) [F103, (Z)-4-(1,4,4,4-tetrafluoro-3-(3,4,5-trichlorophenyl)but-1-en-1-yl)-N′-(4,4,4-trifluorobutyl)-2-(trifluoromethyl)benzohydrazide]	50 to 100	50 to 100
O=C(NNc1ncnc(Cl)n1)c1ccc(/C(F)=C/C(c2cc(Cl)c(Cl)c(Cl)c2)C(F)(F)F)cc1C(F)(F)F (stereo not drawn) [F58, (Z)—N′-(4-Chloro-1,3,5-triazin-2-yl)-4-(1,4,4,4-tetrafluoro-3-(3,4,5-trichlorophenyl)but-1-en-1-yl)-2-(trifluoromethyl)benzohydrazide]	50 to 100	50 to 100
CN(NC(=O)c1ccc(/C(F)=C/C(c2cc(Cl)c(Cl)c(Cl)c2)C(F)(F)F)cc1C(F)(F)F)c1ncc(N)cn1 (stereo not drawn) [F166, (Z)—N′-(5-Aminopyrimidin-2-yl)-N′-methyl-4-(1,4,4,4-tetrafluoro-3-(3,4,5-trichlorophenyl)but-1-en-1-yl)-2-(trifluoromethyl)benzohydrazide]	50 to 100	50 to 100
